We go through 4 compounds from paper PMC11347546, “A radioligand for in vitro autoradiography of CSF1R in post-mortem CNS tissues” (EJNMMI Research, 2024).

For data set [1], the system named is CSF1R. On the set-up: method as in PMID 18242992. The settings on record: read-out: CSF1R functional potency IC50; cited from earlier work.
Details of data set [2]: method as in PMID 30635412. The settings on record: baboon brain, baseline PET; cited from earlier work.
On the set-up of data set [3]: method as in PMID 30635412. The settings on record: baboon blood, 90 min post injection; cited from earlier work.
The target of data set [4] is T1, CSF1R (Mus musculus, UniProt P09581).
T1 construct: from tissue; host or cells: whole brain of male CD1 mice, radiotracer injected in vivo, brains counted ex vivo
T1 sequence (P09581 20-977): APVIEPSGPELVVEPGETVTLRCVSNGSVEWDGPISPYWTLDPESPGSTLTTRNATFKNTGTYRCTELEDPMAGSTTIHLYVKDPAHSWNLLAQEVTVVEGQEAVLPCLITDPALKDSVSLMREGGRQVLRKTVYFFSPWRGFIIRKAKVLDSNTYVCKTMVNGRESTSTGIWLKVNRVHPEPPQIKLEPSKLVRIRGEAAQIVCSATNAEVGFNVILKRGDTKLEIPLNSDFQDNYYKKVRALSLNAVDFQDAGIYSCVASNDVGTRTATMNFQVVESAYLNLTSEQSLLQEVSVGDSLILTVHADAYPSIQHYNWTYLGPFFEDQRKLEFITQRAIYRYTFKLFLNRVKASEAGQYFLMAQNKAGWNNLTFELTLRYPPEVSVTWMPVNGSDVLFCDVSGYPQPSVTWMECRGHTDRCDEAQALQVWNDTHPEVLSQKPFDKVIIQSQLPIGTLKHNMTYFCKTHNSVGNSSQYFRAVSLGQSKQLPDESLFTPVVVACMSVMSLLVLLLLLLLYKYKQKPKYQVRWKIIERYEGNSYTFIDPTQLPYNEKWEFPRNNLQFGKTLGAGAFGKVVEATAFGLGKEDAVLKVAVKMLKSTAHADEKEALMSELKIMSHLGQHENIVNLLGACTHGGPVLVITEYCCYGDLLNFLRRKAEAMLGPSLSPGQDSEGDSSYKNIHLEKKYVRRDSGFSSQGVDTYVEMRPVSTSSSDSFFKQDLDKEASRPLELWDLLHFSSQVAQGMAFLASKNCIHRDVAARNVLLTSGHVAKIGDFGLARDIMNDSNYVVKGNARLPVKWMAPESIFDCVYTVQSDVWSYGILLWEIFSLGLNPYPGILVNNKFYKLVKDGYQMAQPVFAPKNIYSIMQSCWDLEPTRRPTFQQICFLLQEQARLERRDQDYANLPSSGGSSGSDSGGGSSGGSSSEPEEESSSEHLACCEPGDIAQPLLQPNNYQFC
Kind of data set: Ex vivo brain uptake of [^11C]1 in LPS-induced murine model of neuroinflammation, baseline and CPPC blocking. On the set-up: species or system CD1 mice. How it is done:
Studies were performed in a murine LPS-induced neuroinflammation model under the conditions described previously. The percentage of the standardized uptake value (%SUV) uptake in the whole brain at […] after injection was corrected for blood radioactivity as SUV^whole brain/SUV^blood = SUV ratio (SUVR) (Fig. 1).
Fig. 1 Brain uptake of CSF1R radiotracer [^11C]1 in control mice (Base); LPS-treated mice (LPS base); and LPS-treated mice, blocking with CSF1R inhibitor (LPS block). The time point was 45 min after the radiotracer injection. The LPS treatment was IP, 10 mg/kg. Data are mean SUVR ± SD (n = 6). […] Statistical analysis: comparison of LPS-baseline versus control or LPS-block, ANOVA
Brain regional distribution of [^11C]1 in neuroinflammation mouse model: The study was performed in the murine LPS-induced neuroinflammation model described previously. […] The LPS (O111:B4, Calbiochem, San Diego, CA) solution in sterile saline (10 mg/kg, 0.2 mL) was administered intraperitoneally and the radiotracer study was performed on the 3rd day thereafter.
The animals were injected IV with 3.7 MBq (0.1 mCi) [^11C]1 [specific radioactivity = 444 GBq/µmol (12 Ci/µmol)] and sacrificed by cervical dislocation at 45 min after the radiotracer injection. The whole brains were removed, dissected on ice and blood samples (0.2-0.5 cc) were taken from heartand their radioactivity content was determined in a γ-counter LKB/Wallac CompuGamma. The outcome variables were calculated as SUVR = SUVwhole brain/SUVblood.

Data set [5] can be described thus: Dynamic PET brain uptake in control baboon. Format: in vivo, Papio anubis baboon. The settings on record: peak at 30 min after injection. How it is done:
Dynamic PET scan was performed on a male baboon (Papio anubis, 27 kg) using the High Resolution Research Tomograph (CPS Innovations, Knoxville, TN) with an IV injection of 751 MBq (20.3 mCi) [^11C]1 [specific radioactivity: 518 TBq/mmol (14,000 Ci/mmol)]. PET imaging and data analysis and radiometabolite analysis of baboon arterial blood are described in detail in the SI Appendix.
PET images were acquired using a CPS/CTI High Resolution Research Tomograph (HRRT), which has an axial resolution (FWHM) of 2.4 mm, and in plane resolution of 2.4–2.8 mm. The animal was anesthetized and handled as described previously. The 90 min PET data were binned into […]: four 15-s, four 30-s, three 1-min, two 2-min, five 4-min, and twelve 5-min frames. Images were reconstructed using the iterative ordered subset expectation maximization (OS-EM) algorithm (with six iterations and 16 subsets) with correction for radioactive decay, deadtime, attenuation, scatter and randoms. The reconstructed image space consisted of cubic voxels, each 1.22 mm^3 in size, and spanning dimensions of 31 cm × 31 cm (transaxially) and 25 cm (axially).
The image analysis and kinetic modeling were performed using software PMOD (v3.7, PMOD Technologies Ltd, Zurich, Switzerland). Dynamic PET images were first co-registered with the MRI images. […]

Data set [6] is described as follows: Radiochemical purity of formulated [^11C]1 after end-of-synthesis by analytical HPLC. Format: physicochemical. The settings on record: within 90 min after the end-of-synthesis. As to the method:
To a 1 mL V-vial, precursor, 4-cyano-N-(2-(4-methylpiperidin-1-yl)-4-(piperazin-1-yl)phenyl)-1H-pyrrole-2-carboxamide, 8 (1 mg) was added in solution of 0.2 mL of anhydrous DMF. [^11C]Methyl iodide, carried by a stream of helium, was trapped in the precursor solution. The reaction was heated at 80 °C for 3.5 min, then quenched with 0.2 mL of water. The crude reaction product was purified by reverse-phase high performance liquid chromatography (HPLC) at a flow rate of 12 mL/min. The radiolabelled product [^11C]1 (tR = 7–8 min) was fully separated from the precursor (tR = 2.7 min) and collected in a solution of 0.3 g sodium ascorbate in 50 mL water. The aqueous solution was transferred through an activated Waters Oasis Sep-Pak Light cartridge (Milford, MA). After washing the cartridge with 10 mL saline, the product was eluted with 1 mL of ethanol through a […] sterile filter into a sterile, pyrogen-free vial containing 4 mL saline, and 10 mL of 0.9% saline was added through the same filter. The final product, [^11C]1, was analyzed by analytical HPLC to determine the radiochemical purity (> 99%) and specific radioactivity (15–23 Ci/µmol).
HPLC conditions for [^11C]1. Preparative HPLC: Column, XBridge C18, 10 × 250 mm (Waters, Milford, MA). Mobile phase: 39%:61% acetonitrile: triethylamine-phosphate buffer, pH 7.2. Flow rate: 12 mL/min, retention time 8 min. […]

Data set [7] can be described thus: Ex vivo regional brain distribution of [^11C]1 in control CD1 mice. Further details: species or system CD1 male mice. The settings on record: for Regional brain uptake: mean ± SD, n = 3. How it is done: The regional brain uptake of [^11C]1 in control CD1 male mice at three time points after injection of radiotracer is shown in Table 2. […] The uptake in other regions studied here was lower.
Brain regional distribution of [^11C]1 in control mice, baseline: All animal studies were conducted within the guidelines of approved IACUC protocols for mice and non-human primates. Male CD1 mice of four to eight weeks of age, weighing 24-29 g from Charles River Laboratories (Wilmington, MA) were used. […] The brains were removed and dissected on ice. The brain regions (cerebellum, hippocampus, frontal cortex, brain stem and rest of brain) were weighed and their radioactivity content was determined in a γ-counter LKB/Wallac 1283 CompuGamma CS (Bridgeport, CT). The percentage of injected dose per gram of tissue %ID/g tiss was calculated (Table 2).

A short description of data set [8]: Radiometabolite analysis of baboon blood. Format: in vivo, Papio anubis baboon. The settings on record: 90 min post injection. As to the method: (75%) at 90 min post injection.
Samples were centrifuged at 1200×g and the radioactivity in plasma were measured with a cross-calibrated gamma counter. Selected plasma samples (5, 10, 20, 30, 60, and 90 min) were analyzed with high performance liquid chromatography (HPLC) for radioactive metabolites in plasma as described above.

Broadly, the IC50 is the concentration at which inhibition is half-maximal.

Several values for one entry are separate records, joined by “and”; a condition that tells them apart may be missing. Identical values can stand only once. Like-named read-outs stand apart in the source and are kept apart here.

Turning to `CC1CCN(c2cc(N3CCN(C)CC3)ccc2NC(=O)c2cc(C#N)c[nH]2)CC1` [Compound 1, 4-Cyano-N-(4-(4-methylpiperazin-1-yl)-2-(4-methylpiperidin-1-yl)phenyl)-1H-pyrrole-2-carboxamide], the IC50 in data set [1] is […].
Regarding `[11CH3]N1CCN(c2ccc(NC(=O)c3ccc(C#N)o3)c(N3CCCCC3)c2)CC1` [[^11C]CPPC], the Brain uptake in data set [2] is 3.5 SUV. In addition, the Metabolism rate in data set [3] was 75%.
Take `CN1CCN(c2ccc(NC(=O)c3ccc(C#N)o3)c(N3CCCCC3)c2)CC1` [CPPC, 5-cyano-N-(4-(4-methylpiperazin-1-yl)-2-(piperidin-1-yl)phenyl)furan-2-carboxamide, reference compound]: the “Effect of blocking on [^11C]1 brain uptake (SUVR)” value in data set [4] (CPPC 1 mg/kg IP 5 min before [^11C]1, LPS-treated mice) is listed as “significantly decreased the uptake in the LPS-treated mice to the control level”. The IC50 in data set [1] is […].
Consider `CC1CCN(c2cc(N3CCN([11CH3])CC3)ccc2NC(=O)c2cc(C#N)c[nH]2)CC1` [[^11C]1, 4-cyano-N-(4-(4-[^11CH3]methylpiperazin-1-yl)-2-(4-methylpiperidin-1-yl)phenyl)-1H-pyrrole-2-carboxamide], for which the Peak brain uptake in data set [5] worked out at 0.36 SUV. Moreover, the “Change of radiochemical purity of final product” value in data set [6] is “did not change”. Also, in data set [4] (LPS-treated mice, brain), the “Specific CSF1R binding (share of brain uptake)” value is ~ 50% and 50%. Also, the “SUVR (SUV whole brain/SUV blood) in LPS-treated mice versus controls” value in data set [4] (whole brain, 40 min after injection, n = 6) is given as “significantly greater in LPS-treated mice than in controls”. Also, the Regional brain uptake is given as 1.78 ± 0.48 %ID/g tissue in data set [7] (brain stem, 2 min); 1.32 ± 0.10 %ID/g tissue in data set [7] (brain stem, 30 min); 0.92 ± 0.11 %ID/g tissue in data set [7] (brain stem, 60 min); 2.08 ± 0.39 %ID/g tissue in data set [7] (cerebellum, 2 min); 1.39 ± 0.04 %ID/g tissue in data set [7] (cerebellum, 30 min); 0.95 ± 0.09 %ID/g tissue in data set [7] (cerebellum, 60 min). Also, the Regional brain uptake in data set [7] (frontal cortex, 2 min after injection) was 2.15 %ID/g tissue and 2.15 ± 0.44 %ID/g tissue; in data set [7] (frontal cortex, 30 min), 1.49 ± 0.17 %ID/g tissue; in data set [7] (frontal cortex, 60 min), 1.13 ± 0.08 %ID/g tissue; in data set [7] (hippocampus, 2 min) it was 1.63 ± 0.31 %ID/g tissue; in data set [7] (hippocampus, 30 min) it was 1.32 ± 0.10 %ID/g tissue; in data set [7] (hippocampus, 60 min), 1.01 ± 0.17 %ID/g tissue. Moreover, the Regional brain uptake in data set [7] (rest of brain, 2 min) was 1.81 ± 0.34 %ID/g tissue; in data set [7] (rest of brain, 30 min), 1.31 ± 0.10 %ID/g tissue; in data set [7] (rest of brain, 60 min), 0.90 ± 0.06 %ID/g tissue. In addition, the “Total mouse brain uptake” value in data set [7] (total mouse brain) is on record as ~ 2 % ID/g tissue. Besides, in data set [8], the Metabolism rate is 16%.
